# From US5599793A, “Antithromobotic agents” (Eli Lilly and Company, priority 1995, dated 1997)
# Legend:
# [1] = system: Human plasma; experiment: Human plasma anticoagulation, thrombin time (TT); type: biochemical; details: concentration required to double the thrombin time, linear extrapolation
# Experimental: (§1) Dog plasma and rat plasma is obtained from conscious mixed-breed hounds (either sex, Hazelton-LRE, Kalamazoo, Mich., U.S.A.) or from anesthetized male Sprague-Dawley rats (Harlan Sprague-Dawley, Inc., Indianapolis, Ind., U.S.A.) by venipuncture into 3.8 percent citrate. Fibrinogen is prepared from in-date ACD human blood as the fraction I-2 according to previous procedures and specifications. Smith, Biochem. J., 185, 1-11 (1980); and Smith, et al., Biochemistry, 11, 2958-2967 (1972). Human fibrinogen is also purchased as 98 percent pure/plasmin free from American Diagnostica, Greenwich, Conn. Coagulation reagents ACTIN, Thromboplastin, and Human plasma are from Baxter Healthcare Corp., Dade Division, Miami, Fla. Bovine thrombin from Parke-Davis ([…], Mich.) is used for coagulation assays in plasma.
# (§2) Coagulation assay procedures are as previously described. Smith, et al., Thrombosis Research, 50, 163-174 (1988). A CoAScreener coagulation instrument (American LABor, Inc.) is used for all coagulation assay measurements. The prothrombin time (PT) is measured by adding 0.05 mL saline and 0.05 mL Thromboplastin-C reagent to 0.05 mL test plasma. The activated partial thromboplastin time (APTT) is measured by incubation of 0.05 mL test plasma with 0.05 mL Actin reagent for 120 seconds followed by 0.05 mL CaCl2 (0.02M). The thrombin time (TT) is measured by adding 0.05 mL saline and 0.05 mL thrombin (10 NIH units/mL) to 0.05 mL test plasma. The compounds of formula I are added to human or animal plasma over a wide range of concentrations to determine prolongation effects on the APTT, PT, and TT assays. Linear extrapolations are performed to estimate the concentrations required to double the clotting time for each assay.
# [2] = system: Human plasma; experiment: Human plasma anticoagulation, activated partial thromboplastin time (APTT); type: biochemical; details: concentration required to double the APTT, linear extrapolation
# Experimental: as §1, §2
# [3] = molecular target: Human Thrombin (Homo sapiens, UniProt P00734); experiment: Inhibition of amidase activity of thrombin (Kass); type: biochemical; details: apparent association constant, mean over a range of concentrations
# Experimental: (§3) The assay is carried out by mixing 50 μL buffer (0.03M Tris, 0.15M NaCl, pH 7.4) with 25 μL of bovine thrombin or human thrombin solution (0.21 mg/mL of thrombostat bovine thrombin, Parke-Davis, or purified human thrombin, Enzyme Research Laboratories, South Bend, Ind., at about 8 NIH units/mL, in the same buffer) and 25 μL of test compound in a solvent (in 50% aqueous methanol, v:v). The 150 μL of an aqueous solution of the chromogenic substrate (at 0.25 mg/mL) are added and the rates of hydrolysis of the substrate are measured by monitoring the reactions at 405 nm for the release of p-nitroaniline. Standard curves are constructed by plotting free thrombin concentration against hydrolysis rate. The hydrolysis rates observed with test compounds are then converted to "free thrombin" values in the respective assays by use of the standard curves. The bound thrombin (bound to test compound) is calculated by subtracting the amount of free thrombin observed in each assay from the known initial amount of thrombin used in the assay. The amount of free inhibitor in each assay is calculated by subtracting the number of moles of bound thrombin from the number of moles of added inhibitor (test compound).
# The Kass value is the hypothetical equilibrium constant for the reaction between thrombin and the test compound (I). [drawing 54]
# (§4) Kass is calculated for a range of concentrations of test compounds and the mean value is reported in units of liter per mole.
# [4] = molecular target: T1, Trypsin (Bos taurus, UniProt P00760); experiment: Serine protease selectivity, chromogenic substrate (Kass), trypsin; type: biochemical, bovine; details: substrate N-Benzoyl-Phe-Val-Arg-p-nitroanilide
# T1 construct: Bovine trypsin is purchased; purchased Worthington Biochemicals, Freehold, N.J
# T1 sequence (P00760 24-246): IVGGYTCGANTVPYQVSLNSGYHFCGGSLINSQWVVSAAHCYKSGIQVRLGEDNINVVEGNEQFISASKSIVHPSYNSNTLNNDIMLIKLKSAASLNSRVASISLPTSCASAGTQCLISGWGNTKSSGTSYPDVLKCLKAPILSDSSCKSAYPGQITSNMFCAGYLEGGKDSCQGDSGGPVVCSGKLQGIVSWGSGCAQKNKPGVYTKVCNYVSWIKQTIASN
# Experimental: as §3, §4
# (§5) By substantially following the procedures described above for human thrombin, and using other human blood coagulation system serine proteases and proteases of the fibrinolytic system with the appropriate chromogenic substrates, identified below, selectivity of the compounds of the present invention with respect to the coagulation factor serine proteases and with respect to the fibrinolytic system serine proteases are evaluated as well as their substantial lack of interference with serine proteases of the fibrinolytic system. Thrombin inhibitors preferably should spare fibrinolysis induced by urokinase, tissue plasminogen activator (t-PA) and streptokinase. This would be important to the therapeutic use of such agents as an adjunct to streptokinase, t-PA or urokinase thrombolytic therapy and to the use of such agents as an endogenous fibrinolysis-sparing (with respect to t-PA and urokinase) antithrombotic agent. In addition to the lack of interference with the amidase activity of the fibrinolytic proteases, such fibrinolytic system sparing can be studied by the use of human plasma clots and their lysis by the respective fibrinolytic plasminogen activators.
# (§6) Human factors X, Xa, IXa, XIa, and XIIa are purchased from Enzyme Research Laboratories, South Bend, Ind.; human urokinase from Leo Pharmaceuticals, Denmark; and recombinant activated Protein C (aPC) is prepared at Eli Lilly and Co. substantially according to U.S. Pat. No. 4,981,952. Chromogenic substrates: N-Benzoyl-Ile-Glu-Gly-Arg-p-nitroanilide (for factor Xa); N-Cbz-D-Arg-Gly-Arg-p-nitroanilide (for factor IXa assay as the factor Xa substrate); Pyroglutamyl-Pro-Arg-p-nitroanilide (for Factor XIa and for aPC); H-D-Pro-Phe-Arg-p-nitroanilide (for factor XIIa); and Pyroglutamyl-Gly-Arg-p-nitroanilide (for urokinase); are purchased from KabiVitrum, Stockholm, Sweden, or from Midwest Biotech, Fishers, Ind. Bovine trypsin is purchased from Worthington Biochemicals, Freehold, N.J., and human plasma kallikrein from Kabi Vitrum, Stockholm, Sweden. Chromogenic substrate H-D-Pro-Phe-Arg-p-nitroanilide for plasma kallikrein is purchased from Kabi Vitrum, Stockholm, Sweden. N-Benzoyl-Phe-Val-Arg-p-nitroanilide, the substrate for human thrombin and for trypsin, is synthesized according to procedures described above for the compounds of the present invention, using known methods of peptide coupling from commercially available reactants or purchased from Midwest Biotech, Fishers, Ind.
# [5] = molecular target: T2, factor Xa (Homo sapiens, UniProt P00742); experiment: Serine protease selectivity, chromogenic substrate (Kass), factor Xa; type: biochemical; details: substrate N-Benzoyl-Ile-Glu-Gly-Arg-p-nitroanilide
# T2 construct: Human factors X, Xa, IXa, XIa, and XIIa are purchased; purchased Enzyme Research Laboratories, South Bend, Ind
# T2 sequence (P00742 235-488 limits assumed): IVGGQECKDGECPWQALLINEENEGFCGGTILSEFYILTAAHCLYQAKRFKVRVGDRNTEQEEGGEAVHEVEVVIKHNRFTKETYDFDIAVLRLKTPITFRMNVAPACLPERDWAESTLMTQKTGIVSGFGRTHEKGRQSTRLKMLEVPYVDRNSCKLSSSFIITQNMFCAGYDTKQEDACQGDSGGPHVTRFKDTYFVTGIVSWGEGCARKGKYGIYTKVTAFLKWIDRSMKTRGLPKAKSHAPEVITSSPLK
# T2 sequence (P00742 41-179 partner limits assumed): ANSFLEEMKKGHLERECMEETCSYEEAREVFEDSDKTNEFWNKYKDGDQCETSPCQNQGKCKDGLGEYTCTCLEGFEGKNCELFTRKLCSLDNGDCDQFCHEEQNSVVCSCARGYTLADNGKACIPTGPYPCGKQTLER
# Experimental: as §3, §4, §5, §6
# [6] = molecular target: T3, t-PA (Homo sapiens, UniProt P00750); experiment: Serine protease selectivity, chromogenic substrate (Kass), t-PA; type: biochemical; details: substrate H-D-Ile-Pro-Arg-p-nitroanilide
# T3 construct: purchased American Diagnostica, Greenwich, Conn
# T3 sequence (P00750 36-562): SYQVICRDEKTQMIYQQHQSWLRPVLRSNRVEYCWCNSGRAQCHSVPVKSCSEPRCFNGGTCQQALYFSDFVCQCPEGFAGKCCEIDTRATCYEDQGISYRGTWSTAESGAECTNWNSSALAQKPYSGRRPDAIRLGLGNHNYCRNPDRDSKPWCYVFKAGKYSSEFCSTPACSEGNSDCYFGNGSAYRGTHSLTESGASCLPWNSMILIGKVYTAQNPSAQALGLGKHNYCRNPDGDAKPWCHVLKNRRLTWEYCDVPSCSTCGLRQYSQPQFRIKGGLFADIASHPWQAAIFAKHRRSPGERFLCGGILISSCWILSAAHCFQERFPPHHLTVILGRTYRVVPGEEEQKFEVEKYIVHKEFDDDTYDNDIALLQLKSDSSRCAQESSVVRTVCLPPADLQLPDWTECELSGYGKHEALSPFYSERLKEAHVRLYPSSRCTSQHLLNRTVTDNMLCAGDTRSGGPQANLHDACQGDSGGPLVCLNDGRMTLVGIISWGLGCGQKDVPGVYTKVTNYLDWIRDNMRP
# Experimental: as §3, §4, §5
# (§7) Human plasmin is purchased from Boehringer Mannheim, Indianapolis, Ind.; nt-PA is purchased as single chain activity reference from American Diagnostica, Greenwich, Conn.; modified-t-PA6 (mt-PA6) is prepared at Eli Lilly and Company by procedure known in the art (See, Burck, et al., J. Biol. Chem., 265, […] (1990). Plasmin chromogenic substrate H-D-Val-Leu-Lys-p-nitroanilide and tissue plasminogen activator (t-PA) substrate H-D-Ile-Pro-Arg-p-nitroanilide are purchased from Kabi Vitrum, Stockholm, Sweden.
# [7] = system: Human plasma; experiment: Human plasma anticoagulation, prothrombin time (PT); type: biochemical; details: concentration required to double the PT, linear extrapolation
# Experimental: as §1, §2
# [8] = molecular target: T4, Plasmin (Homo sapiens, UniProt P00747); experiment: Serine protease selectivity, chromogenic substrate (Kass), plasmin; type: biochemical; details: substrate H-D-Val-Leu-Lys-p-nitroanilide
# T4 construct: Human plasmin is purchased; purchased Boehringer Mannheim, Indianapolis, Ind
# T4 sequence (P00747 581-810 limits assumed): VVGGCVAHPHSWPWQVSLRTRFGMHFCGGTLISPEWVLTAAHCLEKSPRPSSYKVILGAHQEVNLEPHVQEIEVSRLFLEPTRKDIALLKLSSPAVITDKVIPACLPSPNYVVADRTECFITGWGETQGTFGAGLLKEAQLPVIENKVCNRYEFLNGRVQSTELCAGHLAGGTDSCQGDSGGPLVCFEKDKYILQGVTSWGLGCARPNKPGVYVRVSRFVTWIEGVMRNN
# T4 sequence (P00747 97-580 partner limits assumed): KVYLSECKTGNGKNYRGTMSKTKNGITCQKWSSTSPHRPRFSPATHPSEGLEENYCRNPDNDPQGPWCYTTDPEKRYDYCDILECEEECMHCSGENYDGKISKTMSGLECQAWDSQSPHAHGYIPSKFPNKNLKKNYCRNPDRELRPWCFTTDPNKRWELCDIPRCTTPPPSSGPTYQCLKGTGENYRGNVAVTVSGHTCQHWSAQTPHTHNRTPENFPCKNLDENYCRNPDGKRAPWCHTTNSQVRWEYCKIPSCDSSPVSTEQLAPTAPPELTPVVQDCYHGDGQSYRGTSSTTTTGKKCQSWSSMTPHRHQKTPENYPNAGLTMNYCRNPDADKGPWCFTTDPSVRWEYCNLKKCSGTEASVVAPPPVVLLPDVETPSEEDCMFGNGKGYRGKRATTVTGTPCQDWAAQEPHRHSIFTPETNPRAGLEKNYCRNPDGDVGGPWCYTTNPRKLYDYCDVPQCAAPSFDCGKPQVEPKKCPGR
# Experimental: as §3, §4, §5, §7
SMILES,"Enzyme Kass, Human Thrombin [3]","Enzyme Kass, Trypsin [4]","Enzyme Kass, Xa [5]","Enzyme Kass, t-PA [6]","Enzyme Kass, Plasmin [8]","2x Clotting time, TT [1]","2x Clotting time, APTT [2]","2x Clotting time, PT [7]"
"Cl.Cl.N=C(N)NCCC[C@@H](C=O)NC(=O)[C@@H]1C[C@H](c2ccccc2)CN1C(=O)[C@H]1CCCCN1 (relative stereo) [Example 6, D-hPro-Pro(4-cis-phenyl)-ArgH.2 HCl]",2.9 L/mol × 10^6,240 L/mol × 10^6,5.7 L/mol × 10^6,0.065 L/mol × 10^6,5.3 L/mol × 10^6,340 ng/mL,840 ng/mL,"4,100 ng/mL"
"CC(C)CC[C@H]1C[C@@H](C(=O)N[C@H](C=O)CCCNC(=N)N)N(C(=O)[C@H]2CC3CCCCC3CN2)C1.Cl.Cl (relative stereo) [Example 27, D-3-cis-Piq-Pro(4-cis-isoamyl)-ArgH.2 HCl]",5.4 L/mol × 10^6,633 L/mol × 10^6,11.6 L/mol × 10^6,,14.0 L/mol × 10^6,116 ng/mL,395 ng/mL,"1,232 ng/mL"
"CC(C)CC[C@H]1C[C@@H](C(=O)N[C@H](C=O)CCCNC(=N)N)N(C(=O)C2NCCC3CCCCC32)C1.Cl.Cl (relative stereo) [Example 28, 1-Piq-Pro(4-cis-isoamyl)-ArgH.2 HCl]",0.41 L/mol × 10^6,20.30 L/mol × 10^6,0.14 L/mol × 10^6,,0.27 L/mol × 10^6,"3,637 ng/mL","22,727 ng/mL","43,401 ng/mL"
"Cl.Cl.N=C(N)NCCCC(C=O)NC(=O)C1CC2CCCCC2N1C(=O)C1CC2CCCCC2CN1 [Example 25, D-3-cis-Piq-cis-Ohi-ArgH.2 HCl]",82 L/mol × 10^6,"1,040 L/mol × 10^6",0.67 L/mol × 10^6,,12.4 L/mol × 10^6,25 ng/mL,548 ng/mL,"1,232 ng/mL"
"Cl.Cl.NC(N)=NCCCC(C=O)NC(=O)C1CC(Oc2ccccc2)CN1C(=O)C1CC2CCCCC2CN1 [Example 26, D-3-cis-Piq-Pro(4-cis-phenoxy)-ArgH.2 HCl]",15.6 L/mol × 10^6,718 L/mol × 10^6,2.53 L/mol × 10^6,,11.3 L/mol × 10^6,82 ng/mL,392 ng/mL,"1,322 ng/mL"

# Second part, led by results:
"Enzyme Kass, Human Thrombin [3]","Enzyme Kass, Trypsin [4]","Enzyme Kass, Xa [5]","Enzyme Kass, t-PA [6]","Enzyme Kass, Plasmin [8]",SMILES,"2x Clotting time, TT [1]","2x Clotting time, APTT [2]","2x Clotting time, PT [7]"
8.2 L/mol × 10^6,77 L/mol × 10^6,7.9 L/mol × 10^6,0.19 L/mol × 10^6,2.0 L/mol × 10^6,"CC(C)CC[C@H]1C[C@@H](C(=O)N[C@H](C=O)CCCNC(=N)N)N(C(=O)[C@H]2CCCCN2)C1.Cl.Cl (relative stereo) [Example 4, D-homoprolyl-L-cis-4-isoamyl-prolyl-L-argininal dihydrochloride]",130 ng/mL,630 ng/mL,"3,100 ng/mL"
3.0 L/mol × 10^6,63 L/mol × 10^6,0.59 L/mol × 10^6,0.027 L/mol × 10^6,3.4 L/mol × 10^6,"CC(=O)Nc1ccc(O[C@H]2C[C@@H](C(=O)N[C@H](C=O)CCCNC(=N)N)N(C(=O)[C@H]3CCCCN3)C2)cc1.Cl.Cl (relative stereo) [Example 10, D-hPro-Pro(4-cis-(4-AcNH-phenoxy))-ArgH.2 HCl]",480 ng/mL,"2,200 ng/mL","10,000 ng/mL"
